According to ChEMBL document CHEMBL1201862, “PubChem BioAssay data set” (2004):
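Method: 48-hour compound exposure of cells in 96-well plates, five concentrations, linear interpolation of endpoints. GI50: concentration for 50% inhibition of growth.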 Active and inactive are the calls of the source. Cut-off read from the data, not from the text of the source: active = GI50 up to about 1.1 µM and inactive = higher. Where a SMILES comes first, the peptide text is derived from it. Bridges are numbered along the chain shown (N, C = ends). [ ]: non-standard residue; d: D form. The star is where a group is joined. ξ: configuration not given here. ξNMePhe(4-NMe2) = CNC(Cc1ccc(N(C)C)cc1)C(=O)O; Picolinoyl(3-OH) = O=C(c1ncccc1O)*; ξPip(4-oxo) = O=C1CCNC(C(=O)O)C1; Phg = N[CH](C(=O)O)c1ccccc1; Abu = CC[CH](N)C(=O)O

What was measured:
Test in all cases: growth of human tumour cells (NCI), 48 h
SW-620 = tested on: SW-620
NCI-H226 = tested on: NCI-H226
TK-10 = tested on: TK-10
A498 = tested on: A498
SK-MEL-28 = tested on: SK-MEL-28
MDA-N = tested on: MDA-N
LOX IMVI = tested on: LOX IMVI
HOP-62 = tested on: HOP-62
MCF7 = tested on: MCF7
UACC-62 = tested on: UACC-62
SK-OV-3 = tested on: SK-OV-3
SF-539 = tested on: SF-539
HT-29 = tested on: HT-29
CCRF-CEM = tested on: CCRF-CEM
NCI-H522 = tested on: NCI-H522
COLO 205 = tested on: COLO 205
UACC-257 = tested on: UACC-257
MDA-MB-231 = tested on: MDA-MB-231
HL-60 = tested on: HL-60
A549 = tested on: A549
BT-549 = tested on: BT-549
SR = tested on: SR
K562 = tested on: K562
OVCAR-4 = tested on: OVCAR-4
SNB-19 = tested on: SNB-19
NCI-H460 = tested on: NCI-H460
SNB-75 = tested on: SNB-75
NCI/ADR-RES = tested on: NCI/ADR-RES
Hs-578T = tested on: Hs-578T
HOP-92 = tested on: HOP-92
HCT-15 = tested on: HCT-15
SF-295 = tested on: SF-295
SK-MEL-2 = tested on: SK-MEL-2
SK-MEL-5 = tested on: SK-MEL-5
KM12 = tested on: KM12
CAKI-1 = tested on: CAKI-1
ACHN = tested on: ACHN
SN12C = tested on: SN12C
MOLT-4 = tested on: MOLT-4
OVCAR-8 = tested on: OVCAR-8
OVCAR-3 = tested on: OVCAR-3
UO-31 = tested on: UO-31
M14 = tested on: M14
T47D = tested on: T47D
U-251 = tested on: U-251
EKVX = tested on: EKVX
NCI-H23 = tested on: NCI-H23
Malme-3M = tested on: Malme-3M
OVCAR-5 = tested on: OVCAR-5
SF-268 = tested on: SF-268
786-0 = tested on: 786-0
HCT-116 = tested on: HCT-116
RXF 393 = tested on: RXF 393
IGROV-1 = tested on: IGROV-1
MDA-MB-435 = tested on: MDA-MB-435
PC-3 = tested on: PC-3
HCC 2998 = tested on: HCC 2998
DU-145 = tested on: DU-145
RPMI-8226 = tested on: RPMI-8226

For `CC1=C/C(O)CC(=O)Cc2nc(co2)C(=O)N2CCC=C2C(=O)OC(C(C)C)C(C)/C=C/C(=O)NC\C=C\1.CCC1NC(=O)C(NC(=O)c2ncccc2O)C(C)OC(=O)C(c2ccccc2)NC(=O)C2CC(=O)CCN2C(=O)C(Cc2ccc(N(C)C)cc2)N(C)C(=O)C2CCCN2C1=O` (stereo not drawn) ({Picolinoyl(3-OH)}-T[Abu]P[ξNMePhe(4-NMe2)][ξPip(4-oxo)][Phg]; ester 1-C; configuration not given here), the GI50 (SW-620) was 7.5 µM (inactive), the GI50 (NCI-H226) was 13.6 µM (inactive) and the GI50 (TK-10) was 27.2 µM (inactive). The GI50 (A498) was 10 µM (inactive), the GI50 (SK-MEL-28) was 13.7 µM (inactive) and the GI50 (MDA-N) was 8.07 µM (inactive). The GI50 (LOX IMVI) was 3.87 µM (inactive), the GI50 (HOP-62) was 14.6 µM (inactive) and the GI50 (MCF7) was 7.29 µM (inactive). The GI50 (UACC-62) was 13 µM (inactive), the GI50 (SK-OV-3) was 25.5 µM (inactive) and the GI50 (SF-539) was 17.5 µM (inactive). For the same compound, the GI50 (HT-29) was 6.41 µM (inactive), the GI50 (CCRF-CEM) was 1.9 µM (inactive) and the GI50 (NCI-H522) was 9.1 µM (inactive). For the same compound, the GI50 (COLO 205) was 6.59 µM (inactive), the GI50 (UACC-257) was 6.08 µM (inactive) and the GI50 (MDA-MB-231) was 7.55 µM (inactive). For the same compound, the GI50 (HL-60) was 3.71 µM (inactive), the GI50 (A549) was 16.7 µM (inactive) and the GI50 (BT-549) was 16.9 µM (inactive). For the same compound, the GI50 (SR) was 3.86 µM (inactive), the GI50 (K562) was 4.72 µM (inactive) and the GI50 (OVCAR-4) was 12.1 µM (inactive). The GI50 (SNB-19) was 13.1 µM (inactive), the GI50 (NCI-H460) was 3.75 µM (inactive) and the GI50 (SNB-75) was 24.7 µM (inactive). For the same compound, the GI50 (NCI/ADR-RES) was 25.3 µM (inactive), the GI50 (Hs-578T) was 18.2 µM (inactive) and the GI50 (HOP-92) was 3.78 µM (inactive). For the same compound, the GI50 (HCT-15) was 9.51 µM, the GI50 (SF-295) was 3.66 µM (inactive) and the GI50 (SK-MEL-2) was 7.21 µM (inactive). The GI50 (SK-MEL-5) was 4.91 µM (inactive), the GI50 (KM12) was 10.4 µM (inactive) and the GI50 (CAKI-1) was 28.2 µM (inactive). For the same compound, the GI50 (ACHN) was 7.96 µM (inactive), the GI50 (SN12C) was 9.35 µM (inactive) and the GI50 (MOLT-4) was 3.64 µM (inactive). The GI50 (OVCAR-8) was 25.6 µM (inactive), the GI50 (OVCAR-3) was 8.04 µM (inactive) and the GI50 (UO-31) was 20.8 µM (inactive). For the same compound, the GI50 (M14) was 15 µM (inactive), the GI50 (T47D) was 15.4 µM (inactive) and the GI50 (U-251) was 11.7 µM (inactive). For the same compound, the GI50 (EKVX) was 13.6 µM (inactive), the GI50 (NCI-H23) was 7.05 µM (inactive) and the GI50 (Malme-3M) was 12.8 µM (inactive). The GI50 (OVCAR-5) was 31.5 µM (inactive), the GI50 (SF-268) was 24.4 µM (inactive) and the GI50 (786-0) was 15.5 µM (inactive). The GI50 (HCT-116) was 6.4 µM (inactive), the GI50 (RXF 393) was 11.4 µM (inactive) and the GI50 (IGROV-1) was 11.4 µM (inactive). The GI50 (MDA-MB-435) was 12 µM (inactive), the GI50 (PC-3) was 8.07 µM (inactive) and the GI50 (HCC 2998) was 11.6 µM (inactive). The GI50 (DU-145) was 7.33 µM (inactive) and the GI50 (RPMI-8226) was 4.68 µM (inactive).
With `OC1c2c(ccc3c2CCC3)CC12Cc1ccccc1C2` (stereo not drawn) the GI50 (SW-620) was 17.7 µM (inactive), the GI50 (NCI-H226) was 13.4 µM (inactive) and the GI50 (TK-10) was 14.8 µM (inactive). The GI50 (A498) was 16.2 µM (inactive), the GI50 (SK-MEL-28) was 16.6 µM (inactive) and the GI50 (MDA-N) was 15.5 µM (inactive). For the same compound, the GI50 (LOX IMVI) was 15.9 µM (inactive), the GI50 (HOP-62) was 16.4 µM (inactive) and the GI50 (MCF7) was 18 µM (inactive). For the same compound, the GI50 (UACC-62) was 15.4 µM (inactive), the GI50 (SK-OV-3) was 15.7 µM (inactive) and the GI50 (SF-539) was 21.3 µM (inactive). For the same compound, the GI50 (HT-29) was 17 µM (inactive), the GI50 (CCRF-CEM) was 23.2 µM (inactive) and the GI50 (NCI-H522) was 16.3 µM (inactive). For the same compound, the GI50 (COLO 205) was 16.3 µM (inactive), the GI50 (UACC-257) was 14.1 µM (inactive) and the GI50 (MDA-MB-231) was 15.2 µM (inactive). For the same compound, the GI50 (HL-60) was 15.9 µM (inactive), the GI50 (A549) was 17.1 µM (inactive) and the GI50 (BT-549) was 16.9 µM (inactive). For the same compound, the GI50 (SR) was 10.9 µM (inactive), the GI50 (K562) was 17.1 µM (inactive) and the GI50 (OVCAR-4) was 16.4 µM (inactive). The GI50 (SNB-19) was 15.7 µM (inactive), the GI50 (NCI-H460) was 17.1 µM (inactive) and the GI50 (SNB-75) was 13.8 µM (inactive). The GI50 (NCI/ADR-RES) was 14.3 µM (inactive), the GI50 (Hs-578T) was 16.6 µM (inactive) and the GI50 (HOP-92) was 13 µM (inactive). The GI50 (HCT-15) was 16.5 µM, the GI50 (SF-295) was 17.1 µM (inactive) and the GI50 (SK-MEL-2) was 15.3 µM (inactive). For the same compound, the GI50 (SK-MEL-5) was 15.6 µM (inactive), the GI50 (KM12) was 14.9 µM (inactive) and the GI50 (CAKI-1) was 16.7 µM (inactive). The GI50 (ACHN) was 16.8 µM (inactive), the GI50 (SN12C) was 15.3 µM (inactive) and the GI50 (MOLT-4) was 26.6 µM (inactive). The GI50 (OVCAR-8) was 17.7 µM (inactive), the GI50 (OVCAR-3) was 13.6 µM (inactive) and the GI50 (UO-31) was 14.2 µM (inactive). The GI50 (M14) was 15.3 µM (inactive), the GI50 (T47D) was 16.5 µM (inactive) and the GI50 (U-251) was 15.9 µM (inactive). For the same compound, the GI50 (EKVX) was 16.4 µM (inactive), the GI50 (NCI-H23) was 16.8 µM (inactive) and the GI50 (Malme-3M) was 12 µM (inactive). For the same compound, the GI50 (OVCAR-5) was 17.2 µM (inactive), the GI50 (SF-268) was 14.7 µM (inactive) and the GI50 (786-0) was 17.1 µM (inactive). For the same compound, the GI50 (HCT-116) was 16 µM (inactive), the GI50 (RXF 393) was 13.8 µM (inactive) and the GI50 (IGROV-1) was 17.7 µM (inactive). The GI50 (MDA-MB-435) was 15.7 µM (inactive), the GI50 (PC-3) was 15.3 µM (inactive) and the GI50 (HCC 2998) was 13.5 µM (inactive). For the same compound, the GI50 (DU-145) was 16.3 µM (inactive) and the GI50 (RPMI-8226) was 14.7 µM (inactive).
